Experimental findings from patent US20250368645A1, “BETA CARBOLINE ANALOGUES AS SELECTIVE AND BIASED KAPPA OPIOID RECEPTORS AGONISTS FOR TREATING VARIOUS ASSOCIATED PATHOPHYSIOLOGICAL CONDITIONS” (COUNCIL OF SCIENTIFIC AND INDUSTRIAL RESEARCH, priority 2022, published 2025) are described below.

A word on the IC50: it is the concentration needed to halve the response being measured.

Common to all, as to assay type: cell-based
For one assay, the target named is human KOR (Homo sapiens, UniProt P41145). In words: GloSensor assay, Gi-mediated cAMP inhibition in HEK-293T cells transfected with human KOR. The conditions noted are these: given as Log IC50 (negative values); agonist activity, inhibition of FSK-stimulated cAMP; read-out: GloSensor Assay (Log IC50) KOR (converted).
The target of another assay is MOR (Homo sapiens, UniProt P35372). Nature of the assay: GloSensor assay at MOR. The conditions noted are these: given as Log IC50 (negative values).
A further assay deals with DOR (Homo sapiens, UniProt P41143). In words: GloSensor assay at DOR. The conditions noted are these: given as Log IC50 (negative values).

Molecules are shown by their SMILES.

Chain of MOR (P35372 whole entry): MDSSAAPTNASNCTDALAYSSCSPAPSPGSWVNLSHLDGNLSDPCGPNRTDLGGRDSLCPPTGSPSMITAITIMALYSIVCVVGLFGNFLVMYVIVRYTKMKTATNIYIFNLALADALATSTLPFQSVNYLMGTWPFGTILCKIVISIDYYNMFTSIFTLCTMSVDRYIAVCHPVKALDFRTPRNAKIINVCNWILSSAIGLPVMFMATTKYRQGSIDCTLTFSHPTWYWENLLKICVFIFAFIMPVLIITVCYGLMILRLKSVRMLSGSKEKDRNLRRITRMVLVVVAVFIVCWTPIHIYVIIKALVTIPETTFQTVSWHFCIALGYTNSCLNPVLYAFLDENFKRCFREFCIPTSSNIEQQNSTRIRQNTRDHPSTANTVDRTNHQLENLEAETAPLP
Chain of human KOR (P41145 whole entry): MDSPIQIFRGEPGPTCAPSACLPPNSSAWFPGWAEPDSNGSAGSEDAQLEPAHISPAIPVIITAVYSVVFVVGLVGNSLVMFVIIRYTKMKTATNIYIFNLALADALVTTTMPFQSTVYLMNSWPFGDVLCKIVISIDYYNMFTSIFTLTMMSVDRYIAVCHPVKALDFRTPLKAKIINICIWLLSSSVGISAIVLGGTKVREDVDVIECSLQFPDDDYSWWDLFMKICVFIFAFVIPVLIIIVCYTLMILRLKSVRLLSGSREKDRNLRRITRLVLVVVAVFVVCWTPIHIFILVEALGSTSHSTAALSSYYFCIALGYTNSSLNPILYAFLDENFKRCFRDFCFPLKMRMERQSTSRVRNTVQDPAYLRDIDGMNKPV
Chain of DOR (P41143 whole entry): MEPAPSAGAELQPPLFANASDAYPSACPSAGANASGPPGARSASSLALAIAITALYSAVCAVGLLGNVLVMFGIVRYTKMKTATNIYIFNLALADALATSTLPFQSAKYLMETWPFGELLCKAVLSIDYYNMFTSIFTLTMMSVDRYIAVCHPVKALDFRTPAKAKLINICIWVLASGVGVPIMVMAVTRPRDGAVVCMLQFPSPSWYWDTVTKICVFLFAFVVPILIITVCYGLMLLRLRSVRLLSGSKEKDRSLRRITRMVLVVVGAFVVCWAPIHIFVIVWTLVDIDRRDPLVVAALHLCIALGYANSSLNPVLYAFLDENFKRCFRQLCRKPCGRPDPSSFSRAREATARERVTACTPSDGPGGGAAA

Consider `Cn1c2ccccc2c2cc[n+]3cn(-c4ccc(F)cc4)c(-c4ccc(Br)cc4)c3c21` [8dbd, 1-(4-Bromophenyl)-2-(4-fluorophenyl)-11-methyl-2,11-dihydroimidazo[1′,5′:1,2]pyrido[3,4-b]indol-4-iumchloride], for which the IC50 on human KOR, at MOR and on DOR was over 10 µM each time.

Regarding `COC(=O)c1cc2c3ccccc3[nH]c2c2c(C)n(-c3ccc(F)cc3)c[n+]12` [8bpd, 2-(4-Fluorophenyl)-5-(methoxycarbonyl)-1-methyl-2,11-dihydroimidazo[1′,5′:1,2]pyrido[3,4-b]indol-4-ium chloride], the IC50 at human KOR is 3.16 µM; against MOR it was over 10 µM; against DOR, over 10 µM.

Regarding `Clc1cccc(-n2c[n+]3ccc4c5ccccc5[nH]c4c3c2-c2ccc(Br)cc2)c1` [8abf, 1-(4-Bromophenyl)-2-(3-chlorophenyl)-2,11-dihydroimidazo[1′,5′:1,2]pyrido[3,4-b]indol-4-ium chloride], the half-inhibitory concentration (IC50) at human KOR, on MOR and on DOR was over 10 µM in each case.

In the case of `COC(=O)c1cc2c3ccccc3[nH]c2c2c(-c3ccc(Br)cc3)n(-c3ccc(Cl)cc3)c[n+]12` [8bbc, 1-(4-Bromophenyl)-2-(4-chlorophenyl)-5-(methoxycarbonyl)-2,11-dihydroimidazo[1′,5′:1,2]pyrido[3,4-b]indol-4-iumchloride], the concentration for half-maximal inhibition (IC50) at human KOR, at MOR and on DOR was over 10 µM throughout.

On to `Cn1c2ccccc2c2cc[n+]3cn(-c4ccc(Cl)cc4)c(-c4ccc(Br)cc4)c3c21` [8dbc, 1-(4-Bromophenyl)-2-(4-chlorophenyl)-11-methyl-2,11 dihydroimidazo[1′,5′:1,2]pyrido[3,4-b]indol-4-iumchloride], for which the IC50 at human KOR, against MOR and against DOR was over 10 µM in each case.

On to `Brc1ccccc1-c1c2c3[nH]c4ccccc4c3cc[n+]2cn1-c1ccccc1` [8aca, 1-(2-Bromophenyl)-2-phenyl-2,11-dihydroimidazo[1′,5′:1,2]pyrido[3,4-b]indol-4-ium chloride], for which the IC50 at human KOR is 0.2 µM; at MOR it was over 10 µM; against DOR, 3.16 µM.

For the compound `Fc1ccccc1-n1c[n+]2ccc3c4ccccc4[nH]c3c2c1-c1ccc(Br)cc1` [8abk, 1-(4-Bromophenyl)-2-(2-fluorophenyl)-2,11-dihydroimidazo[1′,5′:1,2]pyrido[3,4-b]indol-4-ium chloride], the 50% inhibitory concentration (IC50) on human KOR was 0.0794 µM; at MOR, over 10 µM; at DOR it was over 10 µM.

As for `CC(C)(C)c1ccc(Cn2c[n+]3ccc4c5ccccc5[nH]c4c3c2-c2ccc(Br)cc2)cc1` [9aac, 1-(4-Bromophenyl)-2-(4-(tert-butyl)benzyl)-2,11-dihydroimidazo[1′,5′:1,2]pyrido[3,4-b]indol-4-ium chloride], the 50% inhibitory concentration (IC50) on human KOR, on MOR and on DOR was over 10 µM each time.

For the compound `COc1ccc(Cn2c[n+]3ccc4c5ccccc5[nH]c4c3c2-c2ccc(Cl)cc2)cc1` [9abe, 1-(4-Chlorophenyl)-2-(4-methoxybenzyl)-2,11-dihydrolmidazo[1′,5′:1,2]pyrido[3,4-b]indol-4-ium chloride], the IC50 at human KOR is 0.0759 µM; at MOR, over 10 µM; against DOR, over 10 µM.

`Clc1ccc(-c2c3c4[nH]c5ccccc5c4cc[n+]3cn2-c2cccc(Cl)c2)cc1` [8adf, 2-(3-Chlorophenyl)-1-(4-chlorophenyl)-2,11-dihydroimidazo[1′,5′:1,2]pyrido[3,4-b]indol-4-ium chloride]: the IC50 on human KOR, on MOR and at DOR was over 10 µM in each case.

`Clc1ccc(-n2c[n+]3ccc4c5ccccc5[nH]c4c3c2-c2ccccc2)cc1` [8aac, 2-(4-Chlorophenyl)-1-phenyl-2,11-dihydroimidazo[1′,5′:1,2]pyrido[3,4-b]indol-4-ium chloride]: the IC50 on human KOR is 0.126 µM; at MOR, over 10 µM; on DOR it was over 10 µM.

Regarding `Fc1ccc(-n2c[n+]3ccc4c5ccccc5[nH]c4c3c2-c2cccc(Cl)c2)cc1` [8afd, 1-(3-Chlorophenyl)-2-(4-fluorophenyl)-2,11-dihydroimidazo[1′,5′:1,2]pyrido[3,4-b]indol-4-ium chloride], the figures for the half-maximal inhibitory concentration (IC50) on human KOR, on MOR and at DOR were 1.82 µM, over 10 µM and over 10 µM, respectively.

`Brc1ccc(-c2c3c4[nH]c5ccccc5c4cc[n+]3cn2Cc2ccccc2)cc1` [9aaa, 2-Benzyl-1-(4-bromophenyl)-2,11-dihydroimidazo[1′,5′:1,2]pyrido[3,4-b]indol-4-ium chloride]: the concentration for half-maximal inhibition (IC50) at human KOR, at MOR and on DOR was over 10 µM each time.

As to `Fc1ccc(-n2c[n+]3ccc4c5ccccc5[nH]c4c3c2-c2cccs2)cc1` [8and, 2-(4-Fluorophenyl)-1-(thiophen-2-yl)-2,11-dihydroimidazo[1′,5′:1,2]pyrido[3,4-b]indol-4-ium chloride], the IC50 is 0.209 µM at human KOR, over 10 µM on MOR and over 10 µM at DOR.

As for `Fc1cccc(-n2c[n+]3ccc4c5ccccc5[nH]c4c3c2-c2ccc(Br)cc2)c1` [8abi, 1-(4-Bromophenyl)-2-(3-fluorophenyl)-2,11-dihydroimidazo[1′,5′:1,2]pyrido[3,4-b]indol-4-ium chloride], the IC50 at human KOR, on MOR and at DOR was over 10 µM throughout.

For the compound `Clc1ccccc1-c1c2c3[nH]c4ccccc4c3cc[n+]2cn1-c1ccc(Br)cc1` [8aeb, 2-(4-Bromophenyl)-1-(2-chlorophenyl)-2,11-dihydroimidazo[1′,5′:1,2]pyrido[3,4-b]indol-4-ium chloride], the values for the half-maximal inhibitory concentration (IC50) on human KOR, against MOR and against DOR were over 10 µM, 1.26 µM and 2 µM, respectively.

On to `Clc1ccc(-c2c3c4[nH]c5ccccc5c4c4ccccc4[n+]3cn2-c2ccc(Cl)cc2)cc1` [12dd, 1,2-Bis(4-chlorophenyl)-2,13-dihydroimidazo[1,5-a]indolo[2,3-c]quinolin-4-ium chloride], for which the IC50 on human KOR, against MOR and at DOR was over 10 µM in each case.

With `Clc1cccc(-n2c[n+]3ccc4c5ccccc5[nH]c4c3c2-c2ccccc2Br)c1` [8acf, 1-(2-Bromophenyl)-2-(3-chlorophenyl)-2,11-dihydroimidazo[1′,5′:1,2]pyrido[3,4-b]indol-4-ium chloride], the IC50 at human KOR was 0.0631 µM; against MOR, over 10 µM; against DOR, over 10 µM.

As for `COC(=O)c1cc2c3ccccc3[nH]c2c2c(-c3ccc(C)cc3)n(-c3ccc(F)cc3)c[n+]12` [8bkd, 2-(4-Fluorophenyl)-5-(methoxycarbonyl)-1-(p-tolyl)-2,11-dihydroimidazo[1′,5′:1,2]pyrido[3,4-b]indol-4-iumchloride], the half-maximal inhibitory concentration (IC50) at human KOR, against MOR and at DOR was over 10 µM throughout.

For the compound `Clc1ccc(-c2c3c4[nH]c5ccccc5c4cc[n+]3cn2Cc2ccsc2)cc1` [9acj, 1-(4-Chlorophenyl)-2-(thiophen-3-ylmethyl)-2,11-dihydroimidazo[1′,5′:1,2]pyrido[3,4-b]indol-4-ium chloride], the half-inhibitory concentration (IC50) on human KOR, against MOR and on DOR was over 10 µM each time.

`Fc1ccc(F)c(Cn2c[n+]3ccc4c5ccccc5[nH]c4c3c2-c2ccc(Br)cc2)c1` [9aaf]: the half-inhibitory concentration (IC50) at human KOR, against MOR and against DOR was over 10 µM in each case.

Turning to `Fc1ccc(-c2c3c4[nH]c5ccccc5c4cc[n+]3cn2-c2ccc(Cl)cc2)cc1` [8agc, 2-(4-Chlorophenyl)-1-(4-fluorophenyl)-2,11-dihydrolmidazo[1′,5′:1,2]pyrido[3,4-b]indol-4-ium chloride], the IC50 on human KOR, at MOR and against DOR was over 10 µM in each case.

For the compound `Brc1ccc(-c2c3c4[nH]c5ccccc5c4cc[n+]3cn2-c2ccc(Br)cc2)cc1` [8abb, 1,2-Bis(4-bromophenyl)-2,11-dihydroimidazo[1′,5′:1,2]pyrido[3,4-b]indol-4-ium chloride], the IC50 at human KOR, against MOR and against DOR was over 10 µM in each case.

As for `FC(F)(F)Oc1ccc(-n2c[n+]3ccc4c5ccccc5[nH]c4c3c2-c2ccc(Br)cc2)cc1` [8abh], the IC50 at human KOR, against MOR and against DOR was over 10 µM throughout.

Regarding `Brc1ccc(-n2c[n+]3ccc4c5ccccc5[nH]c4c3c2-c2ccccc2)cc1` [8aab, 2-(4-Bromophenyl)-1-phenyl-2,11-dihydroimidazo[1′,5′:1,2]pyrido[3,4-b]indol-4-ium chloride], the 50% inhibitory concentration (IC50) is 0.0661 µM on human KOR, over 10 µM against MOR and over 10 µM at DOR.

`FC(F)(F)Oc1ccc(Cn2c[n+]3ccc4c5ccccc5[nH]c4c3c2-c2ccc(Cl)cc2)cc1` [9abh, 1-(4-Chlorophenyl)-2-(4-(trifluoromethoxy)benzyl)-2,11-dihydroimidazo[1′,5′:1,2]pyrido[3,4-b]indol-4-ium chloride]: the IC50 at human KOR, against MOR and on DOR was over 10 µM in each case.

For `Fc1ccc(-n2c[n+]3c4ccccc4c4c5ccccc5[nH]c4c3c2-c2ccc(Br)cc2)cc1` [12cc, 1-4-Bromphenyl)-2-(4-fluorophenyl)-2,13-dihydroimidazo[1,5-a]indolo[2,3-c]quinolin-4-ium chloride], the IC50 on human KOR, on MOR and on DOR was over 10 µM in each case.

Regarding `Clc1ccc(-c2c3c4[nH]c5ccccc5c4c4ccccc4[n+]3cn2-c2ccc(Br)cc2)cc1` [12db, 2(4-Bromophenyl-1-(4-chlorophenyl)-2,13-dihydroimidazo[1,5-a]indolo[2,3-c]quinolin-4-ium chloride], the IC50 on human KOR was 0.251 µM.
